In patent publication US11051515B2, “3-acyl-benzamides and their use as herbicides” (Bayer Aktiengesellschaft, priority 2017, dated 2021):

Tests used:
ECHCG [1] = test: Pre-emergence action against ECHCG; format: in vivo, Echinochloa crus-galli; settings: pre-emergence, dosage 320 g/ha, scored visually after 3 weeks vs untreated controls
Description: (§1) Seeds of monocotyledonous and dicotyledonous weed plants and crop plants are laid out in sandy loam soil in wood-fiber pots and covered with soil. The compounds of the invention, formulated in the form of wettable powders (WP) or as emulsion concentrates (EC), are then applied to the surface of the covering soil in the form of an aqueous suspension or emulsion at a water application rate equating to […], with addition of 0.2% wetting agent. After the treatment, the pots are placed in a greenhouse and kept under good growth conditions for the trial plants. The damage to the test plants is scored visually after a test period of 3 weeks by comparison with untreated controls (herbicidal activity in percent (%): 100% activity=the plants have died, 0% activity=like control plants).

SETVI [2] = test: Pre-emergence action against SETVI; format: in vivo, Setaria viridis; settings: pre-emergence, dosage 320 g/ha, scored visually after 3 weeks vs untreated controls
Description: as §1

ABUTH [3] = test: Pre-emergence action against ABUTH; format: in vivo, Abutilon theophrasti; settings: pre-emergence, dosage 320 g/ha, scored visually after 3 weeks vs untreated controls
Description: as §1

AMARE [4] = test: Pre-emergence action against AMARE; format: in vivo, Amaranthus retroflexus; settings: pre-emergence, dosage 320 g/ha, scored visually after 3 weeks vs untreated controls
Description: as §1

MATIN [5] = test: Pre-emergence action against MATIN; format: in vivo, Matricaria inodora; settings: Dosage 320 g/ha, pre-emergence
Description: as §1

STEME [6] = test: Pre-emergence action against STEME; format: in vivo, Stellaria media; settings: Dosage 320 g/ha, pre-emergence
Description: as §1

VIOTR [7] = test: Pre-emergence action against VIOTR; format: in vivo, Viola tricolor; settings: Dosage 320 g/ha, pre-emergence
Description: as §1

VERPE [8] = test: Pre-emergence action against VERPE; format: in vivo, Veronica persica; settings: Dosage 320 g/ha, pre-emergence
Description: as §1

CYPES [9] = test: Post-emergence action against CYPES; format: in vivo, Cyperus esculentus; settings: post-emergence, dosage 80 g/ha, visual assessment about 3 weeks after treatment vs untreated controls
Method: (§2) Seeds of monocotyledonous and dicotyledonous weed and crop plants are laid out in sandy loam soil in wood-fiber pots, covered with soil and cultivated in a greenhouse under good growth conditions. 2 to 3 weeks after sowing, the test plants are treated at the one-leaf stage. The compounds of the invention, formulated in the form of wettable powders (WP) or as emulsion concentrates (EC), are then sprayed onto the green parts of the plants in the form of an aqueous suspension or emulsion at a water application rate equating to […], with addition of 0.2% wetting agent. After the test plants have been left to stand in the greenhouse under optimal growth conditions for about 3 weeks, the action of the preparations is assessed visually in comparison to untreated controls (herbicidal action in percent (%): 100% activity=the plants have died, 0% activity=like control plants). […] At the same time, inventive compounds leave Gramineae crops such as barley, wheat, rye, millet/Sorghum, corn or rice virtually undamaged when applied post-emergence, even at high active ingredient dosages. In addition, some substances are also harmless to dicotyledonous crops such as soya, cotton, oilseed rape, sugar beet or potatoes. Some of the compounds according to the invention have high selectivity and are therefore suitable for controlling unwanted vegetation in agricultural crops by the post-emergence method. The data of Tables B18 to B34 below illustrate, in an exemplary manner, the […] herbicidal action of the compounds according to the invention, the herbicidal activity being stated in percent.

ECHCG [10] = test: Post-emergence action against ECHCG; format: in vivo, Echinochloa crus-galli; settings: post-emergence, dosage 80 g/ha, visual assessment about 3 weeks after treatment vs untreated controls
Method: as §2

SETVI [11] = test: Post-emergence action against SETVI; format: in vivo, Setaria viridis; settings: post-emergence, dosage 80 g/ha, visual assessment about 3 weeks after treatment vs untreated controls
Method: as §2

ABUTH [12] = test: Post-emergence action against ABUTH; format: in vivo, Abutilon theophrasti; settings: post-emergence, dosage 80 g/ha, visual assessment about 3 weeks after treatment vs untreated controls
Method: as §2

AMARE [13] = test: Post-emergence action against AMARE; format: in vivo, Amaranthus retroflexus; settings: post-emergence, dosage 80 g/ha, visual assessment about 3 weeks after treatment vs untreated controls
Method: as §2

PHBPU [14] = test: Post-emergence action against PHBPU; format: in vivo, Pharbitis purpurea; settings: post-emergence, dosage 80 g/ha
Method: as §2

STEME [15] = test: Post-emergence action against STEME; format: in vivo, Stellaria media; settings: post-emergence, dosage 80 g/ha
Method: as §2

VIOTR [16] = test: Post-emergence action against VIOTR; format: in vivo, Viola tricolor; settings: post-emergence, dosage 80 g/ha
Method: as §2

ALOMY = test: Pre-emergence action against ALOMY; format: in vivo, Alopecurus myosuroides; settings: dosage 320 g/ha; pre-emergence; scored visually after 3 weeks vs untreated controls; 100% = plants have died, 0% = like control plants
Description: as §1

CYPES [17] = test: Pre-emergence action against CYPES; format: in vivo, Cyperus esculentus; settings: pre-emergence, dosage 320 g/ha, scored visually after 3 weeks vs untreated controls
Description: as §1

POLCO = test: Pre-emergence action against POLCO; format: in vivo, Polygonum convolvulus; settings: Dosage 320 g/ha, pre-emergence
Description: as §1

MATIN [18] = test: Post-emergence action against MATIN; format: in vivo, Matricaria inodora; settings: post-emergence, dosage 80 g/ha, visual assessment about 3 weeks after treatment vs untreated controls
Method: as §2

AVEFA = test: Pre-emergence action against AVEFA; format: in vivo, Avena fatua; settings: dosage 320 g/ha, scored visually after 3 weeks vs untreated controls
Description: as §1

PHBPU [19] = test: Pre-emergence action against PHBPU; format: in vivo, Pharbitis purpurea; settings: Dosage 320 g/ha, pre-emergence
Description: as §1

VERPE [20] = test: Post-emergence action against VERPE; format: in vivo, Veronica persica; settings: dosage 80 g/ha
Method: as §2

Row | Compound | Pre-emergence action against ALOMY (herbicidal activity in percent) (ALOMY) [%] | Pre-emergence action against CYPES (herbicidal activity) (CYPES [17]) [%] | Pre-emergence action against ECHCG (herbicidal activity) (ECHCG [1]) [%] | SETVI (Table B8, pre-emergence herbicidal activity) (SETVI [2]) [%] | Pre-emergence action against ABUTH (herbicidal activity) (ABUTH [3]) [%] | Pre-emergence action against AMARE (herbicidal activity) (AMARE [4]) [%] | Pre-emergence action against MATIN (MATIN [5]) [%] | Pre-emergence action against POLCO (POLCO) [%] | Pre-emergence action against STEME (STEME [6]) [%] | Pre-emergence action against VIOTR (VIOTR [7]) [%] | Post-emergence action against ECHCG (herbicidal action in percent) (ECHCG [10]) [%] | Post-emergence action against ABUTH (herbicidal action in percent) (ABUTH [12]) [%] | Post-emergence action against AMARE (herbicidal action in percent) (AMARE [13]) [%] | Post-emergence action against MATIN (herbicidal action in percent) (MATIN [18]) [%] | Post-emergence action against PHBPU (PHBPU [14]) | Post-emergence action against STEME (STEME [15]) | Post-emergence action against VIOTR (VIOTR [16]) | Pre-emergence action against VERPE (VERPE [8]) [%] | also measured
1 | Cn1nnnc1NC(=O)c1ccc(C(F)(F)F)c(C(=O)C(F)(F)F)c1Cl [1-162] | – | – | – | – | – | – | – | – | – | – | – | – | – | – | – | – | – | – | pest or weed control at 320 g/ha (ECHCG [1]; Echinochloa crus-galli, 504 h, read-out: Pre-emergence action against ECHCG (herbicidal activity)): 100%; pest or weed control at 320 g/ha (SETVI [2]; Setaria viridis, 504 h, read-out: SETVI (Table B8, pre-emergence herbicidal activity)): 100%; pest or weed control at 320 g/ha (ABUTH [3]; Abutilon theophrasti, 504 h, read-out: Pre-emergence action against ABUTH (herbicidal activity)): 100%; pest or weed control at 320 g/ha (AMARE [4]; Amaranthus retroflexus, 504 h, read-out: Pre-emergence action against AMARE (herbicidal activity)): 90%; pest or weed control at 320 g/ha (MATIN [5]; Tripleurospermum inodorum, 504 h): 80%; pest or weed control at 320 g/ha (STEME [6]; Stellaria media, 504 h): 100%; pest or weed control at 320 g/ha (VIOTR [7]; Viola tricolor, 504 h): 100%; pest or weed control at 320 g/ha (VERPE [8]; Veronica persica, 504 h): 80%; pest or weed control at 80 g/ha (CYPES [9]; Cyperus esculentus, 504 h, read-out: Post-emergence action against CYPES (herbicidal action in percent)): 80%; pest or weed control at 80 g/ha (ECHCG [10]; Echinochloa crus-galli, 504 h, read-out: Post-emergence action against ECHCG (herbicidal action in percent)): 90%; pest or weed control at 80 g/ha (SETVI [11]; Setaria viridis, 504 h, read-out: Post-emergence action against SETVI (herbicidal action in percent)): 80%; pest or weed control at 80 g/ha (ABUTH [12]; Abutilon theophrasti, 504 h, read-out: Post-emergence action against ABUTH (herbicidal action in percent)): 100%; pest or weed control at 80 g/ha (AMARE [13]; Amaranthus retroflexus, 504 h, read-out: Post-emergence action against AMARE (herbicidal action in percent)): 100%; pest or weed control at 80 g/ha (PHBPU [14]; Ipomoea purpurea, 504 h): 100%; pest or weed control at 80 g/ha (STEME [15]; Stellaria media, 504 h): 100%; pest or weed control at 80 g/ha (VIOTR [16]; Viola tricolor, 504 h): 100%
2 | CCCn1nnnc1NC(=O)c1ccc(C)c(C(C)=O)c1C [3-1] | 90 | 90 | 90 | 90 | 100 | 100 | 100 | 90 | 90 | 100 | 100 | 80 | 90 | 100 | 80 | 90 | 100 | – | –
3 | CCCn1nnnc1NC(=O)c1ccc(C(F)(F)F)c(C(=O)COC)c1Cl [3-144] | 90 | 100 | 100 | 100 | 100 | 100 | 100 | – | 100 | 100 | 80 | 90 | 90 | 90 | 100 | 100 | 80 | 100 | Pre-emergence action against AVEFA (herbicidal activity) (AVEFA): 80%; Pre-emergence action against PHBPU (PHBPU [19]): 80%; Post-emergence action against SETVI (herbicidal action in percent) (SETVI [11]): 100%; Post-emergence action against VERPE (VERPE [20]): 80
4 | CCn1nnnc1NC(=O)c1ccc(C(F)(F)F)c(C(=O)C(C)(C)C)c1Cl [2-143] | – | 90 | 90 | 80 | 100 | 100 | 100 | 100 | 100 | 100 | – | – | – | – | – | 90 | – | 100 | –
5 | CCC(=O)c1c(C)ccc(C(=O)Nc2nnnn2CC)c1Cl [2-135] | 90 | – | 90 | – | – | 100 | 90 | – | 90 | – | 90 | 80 | 90 | 90 | 90 | 100 | 90 | 90 | Post-emergence action against CYPES (herbicidal action in percent) (CYPES [9]): 80%
